# How the values were obtained:
# Format in all cases: in vivo
# [1] = system: barnyardgrass (Echinochloa crus-galli); assay: Test C greenhouse herbicide test, pre- and postemergence
# In short: (§1)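 Greenhouse pots; pre-em on seeded loam:sand blend, post-em on 2–18 cm plants (1–4 leaf) in sphagnum peat/vermiculite medium. Formulation: non-phytotoxic solvent + surfactant. Read-out: visual % control (0–100) vs controls at 13–15 d.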
# [2] = system: blackgrass (Alopecurus myosuroides); assay: as above
# In short: as §1
# corn (Zea mays) = assay: as above
# In short: as §1
# [3] = system: crabgrass, large (large crabgrass, Digitaria sanguinalis); assay: as above
# In short: as §1
# [4] = system: foxtail, giant (giant foxtail, Setaria faberii); assay: as above
# In short: as §1
# [5] = system: johnsongrass (Sorghum halepense); assay: as above
# In short: as §1
# [6] = system: lambsquarters (Chenopodium album); assay: as above
# In short: as §1
# [7] = system: morningglory (Ipomoea coccinea); assay: as above
# In short: as §1
# [8] = system: pigweed (Amaranthus retroflexus); assay: as above
# In short: as §1
# [9] = system: ragweed (common ragweed, Ambrosia elatior); assay: as above
# In short: as §1
# [10] = system: ryegrass, Italian (Italian ryegrass, Lolium multiflorum); assay: as above
# In short: as §1
# soybean (Glycine max) = assay: as above
# In short: as §1
# [11] = system: waterhemp (common waterhemp, Amaranthus rudis); assay: as above
# In short: as §1
# [12] = system: wheat (winter wheat, Triticum aestivum); assay: as above
# In short: as §1
# kochia (Kochia scoparia) = assay: Test C greenhouse herbicide test, postemergence
# In short: (§2)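 Test chemicals were applied postemergence to greenhouse plants at the 1- to 4-leaf stage (2–18 cm tall) growing in peat/vermiculite medium. After 13–15 d, injury was rated visually against untreated controls on a 0–100 scale (0 = no effect, 100 = complete control).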
# [13] = system: oat, wild (wild oat, Avena fatua); assay: Test C greenhouse herbicide test, postemergence
# In short: as §2
# [14] = Postemergence, 31 g ai/ha, scale 0 to 100 (0 no effect, 100 complete control)
# [15] = Postemergence, 62 g ai/ha, 0 to 100 scale (0 no effect, 100 complete control)
# [16] = Postemergence, 250 g ai/ha, scale 0 to 100, 0 no effect, 100 complete control, 13 to 15 d
# [17] = postemergence, 125 g ai/ha, scale 0 to 100, 0 no effect, 100 complete control
# [18] = Postemergence, 250 g ai/ha, scale 0 to 100, 0 is no effect, 100 is complete control
structure (smiles),measurement,setting,value
COC(=O)Oc1c(C)nn(C)c(=O)c1-c1c([N+](=O)[O-])ccc2ccccc12 [Compound 162],"Plant response rating, Barnyardgrass",[1]; [14],10
same,Barnyardgrass plant response rating,[1]; [15],20
same,"Plant response rating, Barnyardgrass",[1]; [16],25
same,Barnyardgrass plant response rating,[1]; [17],25
same,"Plant response rating, Blackgrass",[2]; [14],10
same,Blackgrass plant response rating,[2]; [15],15
same,"Plant response rating, Blackgrass",[2]; [16],40
same,Blackgrass plant response rating,[2]; [17],30
same,"Plant response rating, Corn",corn (Zea mays); [14],0
same,Corn plant response rating,corn (Zea mays); [15],0
same,"Plant response rating, Corn",corn (Zea mays); [16],0
same,Corn plant response rating,corn (Zea mays); [17],0
same,"Plant response rating, Crabgrass, Large",[3]; [14],0
same,"Crabgrass, Large plant response rating",[3]; [15],5
same,"Plant response rating, Crabgrass, Large",[3]; [16],10
same,"Crabgrass, Large plant response rating",[3]; [17],10
same,"Plant response rating, Foxtail, Giant",[4]; [14],5
same,"Foxtail, Giant plant response rating",[4]; [15],15
same,"Plant response rating, Foxtail, Giant",[4]; [16],40
same,"Foxtail, Giant plant response rating",[4]; [17],15
same,"Plant response rating, Johnsongrass",[5]; [14],5
same,Johnsongrass plant response rating,[5]; [15],5
same,"Plant response rating, Johnsongrass",[5]; [16],10
same,Johnsongrass plant response rating,[5]; [17],5
same,"Plant response rating, Lambsquarters",[6]; [14],85
same,Lambsquarters plant response rating,[6]; [15],95
same,"Plant response rating, Lambsquarters",[6]; [16],95
same,Lambsquarters plant response rating,[6]; [17],90
same,"Plant response rating, Morningglory",[7]; [14],60
same,Morningglory plant response rating,[7]; [15],85
same,"Plant response rating, Morningglory",[7]; [16],90
same,Morningglory plant response rating,[7]; [17],85
same,"Plant response rating, Pigweed",[8]; [14],75
same,Pigweed plant response rating,[8]; [15],80
same,"Plant response rating, Pigweed",[8]; [16],90
same,Pigweed plant response rating,[8]; [17],85
same,"Plant response rating, Ragweed",[9]; [14],70
same,Ragweed plant response rating,[9]; [15],85
same,"Plant response rating, Ragweed",[9]; [16],90
same,Ragweed plant response rating,[9]; [17],75
same,"Plant response rating, Ryegrass, Italian",[10]; [14],60
same,"Ryegrass, Italian plant response rating",[10]; [15],70
same,"Plant response rating, Ryegrass, Italian",[10]; [16],80
same,"Ryegrass, Italian plant response rating",[10]; [17],70
same,"Plant response rating, Soybean",soybean (Glycine max); [14],0
same,Soybean plant response rating,soybean (Glycine max); [15],0
same,"Plant response rating, Soybean",soybean (Glycine max); [16],0
same,Soybean plant response rating,soybean (Glycine max); [17],0
same,"Plant response rating, Waterhemp",[11]; [14],45
same,Waterhemp plant response rating,[11]; [15],65
same,"Plant response rating, Waterhemp",[11]; [16],65
same,Waterhemp plant response rating,[11]; [17],70
same,"Plant response rating, Wheat",[12]; [14],0
same,Wheat plant response rating,[12]; [15],10
same,"Plant response rating, Wheat",[12]; [16],10
same,Wheat plant response rating,[12]; [17],5
same,"Plant response rating, Kochia",kochia (Kochia scoparia); [14],70
same,Kochia plant response rating,kochia (Kochia scoparia); [15],80
same,"Plant response rating, Kochia",kochia (Kochia scoparia); [16],90
same,Kochia plant response rating,kochia (Kochia scoparia); [17],90
same,"Plant response rating, Oat, Wild",[13]; [14],50
same,"Oat, Wild plant response rating",[13]; [15],60
same,"Plant response rating, Oat, Wild",[13]; [16],70
same,"Oat, Wild plant response rating",[13]; [17],70
CC(=O)Oc1c(C)nn(C)c(=O)c1-c1c([N+](=O)[O-])ccc2ccccc12 [Compound 164],"Plant response rating, Barnyardgrass",[1]; [14],10
same,Barnyardgrass plant response rating,[1]; [15],25
same,"Plant response rating, Barnyardgrass",[1]; [18],35
same,Barnyardgrass plant response rating,[1]; [17],30
same,"Plant response rating, Blackgrass",[2]; [14],5
same,Blackgrass plant response rating,[2]; [15],15
same,"Plant response rating, Blackgrass",[2]; [18],45
same,Blackgrass plant response rating,[2]; [17],40
same,"Plant response rating, Corn",corn (Zea mays); [14],0
same,Corn plant response rating,corn (Zea mays); [15],0
same,"Plant response rating, Corn",corn (Zea mays); [18],5
same,Corn plant response rating,corn (Zea mays); [17],5
same,"Plant response rating, Crabgrass, Large",[3]; [14],0
same,"Crabgrass, Large plant response rating",[3]; [15],5
same,"Plant response rating, Crabgrass, Large",[3]; [18],10
same,"Crabgrass, Large plant response rating",[3]; [17],10
same,"Plant response rating, Foxtail, Giant",[4]; [14],5
same,"Foxtail, Giant plant response rating",[4]; [15],10
same,"Plant response rating, Foxtail, Giant",[4]; [18],30
same,"Foxtail, Giant plant response rating",[4]; [17],15
same,"Plant response rating, Johnsongrass",[5]; [14],5
same,Johnsongrass plant response rating,[5]; [15],5
same,"Plant response rating, Johnsongrass",[5]; [18],10
same,Johnsongrass plant response rating,[5]; [17],5
same,"Plant response rating, Lambsquarters",[6]; [14],70
same,Lambsquarters plant response rating,[6]; [15],85
same,"Plant response rating, Lambsquarters",[6]; [18],98
same,Lambsquarters plant response rating,[6]; [17],85
same,"Plant response rating, Morningglory",[7]; [14],80
same,Morningglory plant response rating,[7]; [15],85
same,"Plant response rating, Morningglory",[7]; [18],90
same,Morningglory plant response rating,[7]; [17],90
same,"Plant response rating, Pigweed",[8]; [14],70
same,Pigweed plant response rating,[8]; [15],80
same,"Plant response rating, Pigweed",[8]; [18],85
same,Pigweed plant response rating,[8]; [17],85
same,"Plant response rating, Ragweed",[9]; [14],70
same,Ragweed plant response rating,[9]; [15],80
same,"Plant response rating, Ragweed",[9]; [18],90
same,Ragweed plant response rating,[9]; [17],85
same,"Plant response rating, Ryegrass, Italian",[10]; [14],50
same,"Ryegrass, Italian plant response rating",[10]; [15],60
same,"Plant response rating, Ryegrass, Italian",[10]; [18],85
same,"Ryegrass, Italian plant response rating",[10]; [17],80
same,"Plant response rating, Soybean",soybean (Glycine max); [14],0
same,Soybean plant response rating,soybean (Glycine max); [15],0
same,"Plant response rating, Soybean",soybean (Glycine max); [18],5
same,Soybean plant response rating,soybean (Glycine max); [17],10
same,"Plant response rating, Waterhemp",[11]; [14],60
same,Waterhemp plant response rating,[11]; [15],70
same,"Plant response rating, Waterhemp",[11]; [18],75
same,Waterhemp plant response rating,[11]; [17],70
same,"Plant response rating, Wheat",[12]; [14],5
same,Wheat plant response rating,[12]; [15],5
same,"Plant response rating, Wheat",[12]; [18],20
same,Wheat plant response rating,[12]; [17],10
same,"Plant response rating, Kochia",kochia (Kochia scoparia); [14],60
same,Kochia plant response rating,kochia (Kochia scoparia); [15],85
same,"Plant response rating, Kochia",kochia (Kochia scoparia); [18],95
same,Kochia plant response rating,kochia (Kochia scoparia); [17],90
same,"Plant response rating, Oat, Wild",[13]; [14],35
same,"Oat, Wild plant response rating",[13]; [15],45
same,"Plant response rating, Oat, Wild",[13]; [18],80
same,"Oat, Wild plant response rating",[13]; [17],70
